Reference: patent publication US4401660A, “Ester derivatives of 5-O-mycaminosyl tylonolide and method of using same” (Eli Lilly and Company, priority 1981, dated 1983)
Where two headings read alike, the source gives them in different places.

Columns and labels:
[1] = test system: Streptococcus pyogenes C203; assay: ED50 in mice with experimental infections (Table IV); format: in vivo; details: Streptococcus pyogenes, doses given 1 and 4 hours postinfection
Procedure, shortened: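 Read-out is ED50, the mg/kg dose protecting half of infected mice; values refer to each of two doses, given 1 and 4 hours after infection.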

[2] = test system: Streptococcus pyogenes C203; assay: MIC, standard agar-dilution assay (Table II); format: cell-based; set-up: unit not given here
Protocol: (§1) The MIC's in Table II were determined by standard agar-dilution assays. The MIC's in Table III were obtained using a conventional broth-dilution microtiter test.

[3] = test system: Staphylococcus aureus V41; assay: MIC, standard agar-dilution assay (Table II); format: cell-based; set-up: unit not given here; details: Staphylococcus aureus V41, penicillin-resistant strain
Protocol: as §1

[4] = test system: Haemophilus influenzae Holt; assay: MIC, standard agar-dilution assay (Table II); format: cell-based; set-up: unit not given here; details: ampicillin-sensitive strain
Protocol: as §1

[5] = test system: Streptococcus pneumoniae Park I; assay: MIC, standard agar-dilution assay (Table II); format: cell-based; set-up: unit not given here
Protocol: as §1

[6] = test system: Staphylococcus aureus S13E; assay: MIC, standard agar-dilution assay (Table II); format: cell-based; set-up: unit not given here
Protocol: as §1

[7] = test system: Staphylococcus epidermidis EPI2; assay: MIC, standard agar-dilution assay (Table II); format: cell-based; set-up: unit not given here
Protocol: as §1

[8] = test system: Haemophilus influenzae R252; assay: MIC, standard agar-dilution assay (Table II); format: cell-based; set-up: unit not given here; details: Haemophilus influenzae R252, ampicillin-resistant strain
Protocol: as §1

[9] = test system: Staphylococcus aureus X1.1; assay: MIC, standard agar-dilution assay (Table II); format: cell-based; set-up: unit not given here
Protocol: as §1

[10] = test system: Staphylococcus aureus X400; assay: MIC, standard agar-dilution assay (Table II); format: cell-based; set-up: unit not given here; details: Staphylococcus aureus X400, methicillin-resistant strain
Protocol: as §1

[11] = test system: Streptococcus Group D X66; assay: MIC, standard agar-dilution assay (Table II); format: cell-based; set-up: unit not given here
Protocol: as §1

[12] = test system: Streptococcus Group D 9960; assay: MIC, standard agar-dilution assay (Table II); format: cell-based; set-up: unit not given here
Protocol: as §1

[13] = test system: Staphylococcus epidermidis EPI1; assay: MIC, standard agar-dilution assay (Table II); format: cell-based; set-up: unit not given here
Protocol: as §1

Pasteurella multocida = assay: Treatment of Pasteurella infections in chicks (Table V); format: in vivo, one-day-old chicks; details: Pasteurella multocida, sc, 4 h; 30 mg/kg by subcutaneous injection one and four hours post challenge; read-out: Deaths in Treated Chicks/Number Treated (converted)
Procedure, shortened: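 Dosing was 30 mg/kg by subcutaneous injection, one and four hours after challenge. Day-old chicks received 0.1 ml of a 10^-3 dilution of a 20-hour tryptose broth culture of avian P. multocida subcutaneously. Nonmedicated infected chicks served as controls, ten per group.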

[14] = test system: Pasteurella multocida 17E; assay: MIC, broth-dilution microtiter test (Table III); format: cell-based; set-up: unit not given here; details: bovine isolate
Protocol: as §1

[15] = test system: Pasteurella haemolytica 22C; assay: MIC, broth-dilution microtiter test (Table III); format: cell-based; set-up: unit not given here
Protocol: as §1

[16] = test system: Pasteurella multocida 40G; assay: MIC, broth-dilution microtiter test (Table III); format: cell-based; set-up: unit not given here
Protocol: as §1

[17] = test system: Pasteurella multocida 68C; assay: MIC, broth-dilution microtiter test (Table III); format: cell-based; set-up: unit not given here
Protocol: as §1

[18] = test system: Pasteurella multocida 60A; assay: MIC, broth-dilution microtiter test (Table III); format: cell-based; set-up: unit not given here; details: avian isolate
Protocol: as §1

Mycoplasma gallisepticum = assay: MIC, broth-dilution microtiter test (Table III); format: cell-based; set-up: unit not given here
Protocol: as §1

Streptococcus sp. 80 = assay: MIC, broth-dilution microtiter test (Table III); format: cell-based; set-up: unit not given here
Protocol: as §1

Staphylococcus aureus = assay: MIC, broth-dilution microtiter test (Table III); format: cell-based; set-up: unit not given here
Protocol: as §1

Mycoplasma synoviae = assay: MIC, broth-dilution microtiter test (Table III); format: cell-based; set-up: unit not given here
Protocol: as §1

Mycoplasma hyorhinis = assay: MIC, broth-dilution microtiter test (Table III); format: cell-based; set-up: unit not given here
Protocol: as §1

[19] = test system: Pasteurella multocida 22A; assay: MIC, broth-dilution microtiter test (Table III); format: cell-based; set-up: unit not given here
Protocol: as §1

[20] = test system: Pasteurella haemolytica 23C; assay: MIC, broth-dilution microtiter test (Table III); format: cell-based; set-up: unit not given here
Protocol: as §1

[21] = test system: Pasteurella haemolytica 41D; assay: MIC, broth-dilution microtiter test (Table III); format: cell-based; set-up: unit not given here
Protocol: as §1

[22] = C203, oral, read-out: ED50, Oral
[23] = C203, sc, subcutaneous, read-out: ED50, Subcutaneous

| Structure (SMILES) | ED50 [1, 22] [mg/kg] | ED50 [1, 23] [mg/kg] | minimal inhibitory concentration (MIC) [2] | minimal inhibitory concentration (MIC) [3] | minimal inhibitory concentration (MIC) [4] | minimal inhibitory concentration (MIC) [5] | minimal inhibitory concentration (MIC) [6] | minimal inhibitory concentration (MIC) [7] | minimal inhibitory concentration (MIC) [8] | minimal inhibitory concentration (MIC) [9] | minimal inhibitory concentration (MIC) [10] | minimal inhibitory concentration (MIC) [11] | minimal inhibitory concentration (MIC) [12] | minimal inhibitory concentration (MIC) [13] | mortality at 30 mg/kg (Pasteurella multocida) [%] | minimal inhibitory concentration (MIC) [14] | minimal inhibitory concentration (MIC) [15] | minimal inhibitory concentration (MIC) [16] | minimal inhibitory concentration (MIC) [17] | minimal inhibitory concentration (MIC) [18] | also measured |
| --- | --- | --- | --- | --- | --- | --- | --- | --- | --- | --- | --- | --- | --- | --- | --- | --- | --- | --- | --- | --- | --- |
| CCC(=O)OCC1C=C(C)C=CC(=O)C(C)CC(CC=O)C(OC2OC(C)C(O)C(N(C)C)C2OC(C)=O)C(C)C(O)CC(=O)OC1CC (centres unmarked) [Compound 12, 2'-O-Acetyl-23-O-propionyl-OMT] | 150 | 8.1 | 0.25 | 0.5 | 2 | 0.125 | 0.5 | 0.25 | 8 | 0.5 | 0.5 | 0.5 | 0.5 | 0.25 | 0 | 1.56 | 6.25 | 0.78 | 1.56 | 1.56 | minimal inhibitory concentration (MIC) (Mycoplasma gallisepticum): < 0.05; minimal inhibitory concentration (MIC) (Streptococcus sp. 80): 0.39; minimal inhibitory concentration (MIC) (Staphylococcus aureus): 0.39; minimal inhibitory concentration (MIC) (Mycoplasma synoviae): < 0.05; minimal inhibitory concentration (MIC) (Mycoplasma hyorhinis): 3.12; minimal inhibitory concentration (MIC) [19]: 0.78; minimal inhibitory concentration (MIC) [20]: 3.12; minimal inhibitory concentration (MIC) [21]: 3.12 |
| CCC1OC(=O)CC(O)C(C)C(OC2OC(C)C(O)C(N(C)C)C2O)C(CC=O)CC(C)C(=O)C=CC(C)=CC1COS(=O)(=O)c1ccc(C)cc1 (centres unmarked) [Compound 46] | 146 | 15 | 0.125 | 0.25 | 1 | 0.03 | 0.25 | 0.25 | 1 | 0.25 | 0.25 | 0.25 | 0.25 | 0.25 | 80 | 3.12 | 3.12 | 6.25 | 3.12 | 1.56 | minimal inhibitory concentration (MIC) (Mycoplasma gallisepticum): 0.05; minimal inhibitory concentration (MIC) (Streptococcus sp. 80): 0.097; minimal inhibitory concentration (MIC) (Staphylococcus aureus): 0.195; minimal inhibitory concentration (MIC) (Mycoplasma synoviae): 0.097; minimal inhibitory concentration (MIC) (Mycoplasma hyorhinis): 0.78; minimal inhibitory concentration (MIC) [19]: 6.25; minimal inhibitory concentration (MIC) [20]: 3.12; minimal inhibitory concentration (MIC) [21]: 3.12 |
| CCC1OC(=O)CC(O)C(C)C(OC2OC(C)C(OC(C)=O)C(N(C)C)C2OC(C)=O)C(CC=O)CC(C)C(=O)C=CC(C)=CC1COC(C)=O (centres unmarked) [Compound 7, 2',4',23-Tri-O-acetyl-OMT] | 100 | > 15 | 0.5 | 1 | 2 | 0.125 | 1 | 0.5 | 8 | 0.5 | 1 | 1 | 1 | 0.5 | 50 | 3.12 | 6.25 | 1.56 | 1.56 | 3.12 | minimal inhibitory concentration (MIC) (Mycoplasma gallisepticum): 0.39; minimal inhibitory concentration (MIC) (Streptococcus sp. 80): 0.195; minimal inhibitory concentration (MIC) (Staphylococcus aureus): 0.78; minimal inhibitory concentration (MIC) (Mycoplasma synoviae): 0.39; minimal inhibitory concentration (MIC) (Mycoplasma hyorhinis): 3.12; minimal inhibitory concentration (MIC) [19]: 3.12; minimal inhibitory concentration (MIC) [20]: 6.25; minimal inhibitory concentration (MIC) [21]: 6.25 |
| CCC1OC(=O)CC(O)C(C)C(OC2OC(C)C(O)C(N(C)C)C2O)C(CC=O)CC(C)C(=O)C=CC(C)=CC1COC(C)=O (centres unmarked) [Compound 13, 23-O-Acetyl-OMT] | 109 | 3.3 | 0.125 | 0.25 | 1 | 0.125 | 0.25 | 0.25 | 4 | 0.25 | 0.5 | 0.25 | 0.5 | 0.25 | 0 | 1.56 | 3.12 | 3.12 | 1.56 | 1.56 | minimal inhibitory concentration (MIC) (Mycoplasma gallisepticum): 0.05; minimal inhibitory concentration (MIC) (Streptococcus sp. 80): 0.195; minimal inhibitory concentration (MIC) (Staphylococcus aureus): 0.39; minimal inhibitory concentration (MIC) (Mycoplasma synoviae): 0.097; minimal inhibitory concentration (MIC) (Mycoplasma hyorhinis): 0.78; minimal inhibitory concentration (MIC) [19]: 1.56; minimal inhibitory concentration (MIC) [20]: 3.12; minimal inhibitory concentration (MIC) [21]: 6.25 |
| CCC1OC(=O)CC(O)C(C)C(OC2OC(C)C(O)C(N(C)C)C2OC(C)=O)C(CC=O)CC(C)C(=O)C=CC(C)=CC1COC(C)=O (centres unmarked) [Compound 9] | 137 | 6.4 | 0.25 | 0.5 | 1 | 0.125 | 0.25 | 0.25 | 4 | 0.45 | 0.5 | 0.5 | 0.5 | 0.25 | 0 | 1.56 | 3.12 | 1.56 | 3.12 | 1.56 | minimal inhibitory concentration (MIC) (Mycoplasma gallisepticum): < 0.78; minimal inhibitory concentration (MIC) (Streptococcus sp. 80): 0.195; minimal inhibitory concentration (MIC) (Staphylococcus aureus): 0.78; minimal inhibitory concentration (MIC) (Mycoplasma synoviae): 0.097; minimal inhibitory concentration (MIC) (Mycoplasma hyorhinis): 1.56; minimal inhibitory concentration (MIC) [19]: 6.25; minimal inhibitory concentration (MIC) [20]: 3.12; minimal inhibitory concentration (MIC) [21]: 3.12 |
